In ChEMBL document CHEMBL5335847, “Model of P-Glycoprotein Ligand Binding and Validation with Efflux Substrate Matched Pairs” (J Med Chem, 2024):

Columns and labels:
[1] = biological target: Mu-type opioid receptor (Rattus norvegicus, UniProt P33535); experiment: Antagonist activity at mu-opioid receptor in rat thalamus membrane assessed as inhibition of DAMGO-stimulated [35S]GTPgammaS binding incubated for 2 hrs by liquid scintillation spectrophotometry; type: functional, cell membranes
[2] = biological target: P-gp (ABCB1) (Homo sapiens, UniProt P08183); experiment: Substrate activity at P-gp in human Caco-2 cells assessed as efflux ratio measured for 2 hrs by HPLC analysis; type: ADME, cell-based
[3] = Apparent permeability of the compound across apical to basolateral side in human Caco-2 cells measured for 2 hrs by HPLC analysis; type: ADME, cell-based

Chain of Mu-type opioid receptor (P33535 whole entry): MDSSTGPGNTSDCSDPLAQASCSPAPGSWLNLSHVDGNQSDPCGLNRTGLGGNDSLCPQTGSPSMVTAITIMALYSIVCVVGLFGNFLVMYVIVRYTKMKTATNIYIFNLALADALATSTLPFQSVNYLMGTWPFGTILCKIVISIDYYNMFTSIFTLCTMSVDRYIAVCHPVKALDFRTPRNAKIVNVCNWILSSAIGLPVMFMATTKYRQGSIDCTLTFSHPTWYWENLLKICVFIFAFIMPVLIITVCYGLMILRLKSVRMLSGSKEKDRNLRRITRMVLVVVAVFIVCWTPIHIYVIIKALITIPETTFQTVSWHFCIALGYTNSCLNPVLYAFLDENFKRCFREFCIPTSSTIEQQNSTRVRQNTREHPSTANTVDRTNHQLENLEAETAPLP
Chain of P-gp (ABCB1) (P08183 whole entry): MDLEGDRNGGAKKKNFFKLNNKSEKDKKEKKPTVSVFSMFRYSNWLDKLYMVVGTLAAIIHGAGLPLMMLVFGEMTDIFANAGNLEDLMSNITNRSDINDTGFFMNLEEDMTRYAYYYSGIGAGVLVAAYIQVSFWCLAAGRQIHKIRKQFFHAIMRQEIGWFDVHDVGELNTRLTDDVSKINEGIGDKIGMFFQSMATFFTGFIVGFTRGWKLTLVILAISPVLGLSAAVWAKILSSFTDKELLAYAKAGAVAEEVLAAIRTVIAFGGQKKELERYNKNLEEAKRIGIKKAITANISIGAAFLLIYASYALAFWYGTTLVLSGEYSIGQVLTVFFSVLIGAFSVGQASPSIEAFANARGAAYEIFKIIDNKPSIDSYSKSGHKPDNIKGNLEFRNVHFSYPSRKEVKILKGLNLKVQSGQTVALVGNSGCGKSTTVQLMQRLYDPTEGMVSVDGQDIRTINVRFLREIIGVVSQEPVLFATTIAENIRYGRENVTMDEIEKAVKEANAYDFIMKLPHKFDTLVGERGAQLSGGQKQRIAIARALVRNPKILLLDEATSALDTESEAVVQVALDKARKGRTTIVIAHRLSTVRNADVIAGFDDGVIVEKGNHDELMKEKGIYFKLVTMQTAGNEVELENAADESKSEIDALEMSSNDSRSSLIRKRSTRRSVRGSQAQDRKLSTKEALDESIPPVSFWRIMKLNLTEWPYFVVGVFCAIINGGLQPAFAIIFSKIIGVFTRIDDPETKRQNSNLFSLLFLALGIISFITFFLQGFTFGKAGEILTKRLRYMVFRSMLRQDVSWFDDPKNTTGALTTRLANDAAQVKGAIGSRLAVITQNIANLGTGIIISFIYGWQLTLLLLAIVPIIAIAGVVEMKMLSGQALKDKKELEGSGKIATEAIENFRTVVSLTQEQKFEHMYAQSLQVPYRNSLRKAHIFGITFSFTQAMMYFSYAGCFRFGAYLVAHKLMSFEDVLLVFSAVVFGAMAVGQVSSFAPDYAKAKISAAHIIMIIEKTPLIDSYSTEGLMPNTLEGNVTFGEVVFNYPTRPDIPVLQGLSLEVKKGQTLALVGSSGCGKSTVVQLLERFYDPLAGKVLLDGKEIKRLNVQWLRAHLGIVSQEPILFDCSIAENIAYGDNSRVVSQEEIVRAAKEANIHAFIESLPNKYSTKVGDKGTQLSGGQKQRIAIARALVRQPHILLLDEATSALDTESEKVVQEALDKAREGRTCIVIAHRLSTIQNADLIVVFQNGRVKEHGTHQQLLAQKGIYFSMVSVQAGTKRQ

SMILES	Ki [1] [nM]	efflux ratio at 2 h [2]	Papp A→B at 2 h [3] [×10⁻⁶ cm/s]
O=C(N[C@@H]1CC[C@@]2(O)[C@H]3Cc4ccc(O)c5c4[C@@]2(CCN3CC2CC2)[C@H]1O5)c1ccncc1	4.8	> 10	< 0.7
O=C(N[C@@H]1CC[C@@]2(O)[C@H]3Cc4ccc(O)c5c4[C@@]2(CCN3CC2CC2)[C@H]1O5)c1cc2ccccc2cn1	3.5	1.3	3
